# Data from ChEMBL document CHEMBL1150620, “Two new minor polybrominated dibenzo-p-dioxins from the marine sponge Dysidea dendyi” (J Nat Prod, 2002).
# Test: Inhibition of cell division of Strongylocentrotus intermedius fertilized eggs
# Assay type: functional, Egg
row,SMILES,IC50 [µM]
1,COc1cc(Br)cc(Br)c1Oc1cc(Br)cc(Br)c1O,4.7
2,COc1c(Br)cc(Br)cc1Oc1ccc(Br)cc1Br,145
3,COc1cc(Br)cc(Br)c1Oc1cc(Br)cc(Br)c1OC,137
4,COc1cc(Br)c(Br)c2c1Oc1cc(Br)cc(Br)c1O2 [SPONGIADIOXIN A METHYL ETHER],141
5,Oc1cc(Br)c(Br)c2c1Oc1cc(Br)cc(Br)c1O2 [SPONGIADIOXIN A],4.8
6,COc1c(Br)c(Br)cc2c1Oc1cc(Br)cc(Br)c1O2 [SPONGIADIOXIN B METHYL ETHER],94
7,Oc1c(Br)c(Br)cc2c1Oc1cc(Br)cc(Br)c1O2 [SPONGIADIOXIN B],1.1
8,COc1cc(Br)cc2c1Oc1cc(Br)cc(Br)c1O2 [SPONGIADIOXIN C METHYL ETHER],166
9,Oc1cc(Br)cc2c1Oc1cc(Br)cc(Br)c1O2 [SPONGIADIOXIN C],5.7
